Drawing on paper PMC7470151, “Synthesis and evaluation of 2,4,5-trisubstitutedthiazoles as carbonic anhydrase-III inhibitors” (Journal of Enzyme Inhibition and Medicinal Chemistry, 2020), this text covers melting point and Ki for 18 compounds.

Data set [1] concerns the target T1, Bovine carbonic anhydrase, isozyme III (Bos taurus, UniProt Q3SZX4).
T1 construct: purchased Biovar Ltd, Armenia
T1 sequence (Q3SZX4 1-260): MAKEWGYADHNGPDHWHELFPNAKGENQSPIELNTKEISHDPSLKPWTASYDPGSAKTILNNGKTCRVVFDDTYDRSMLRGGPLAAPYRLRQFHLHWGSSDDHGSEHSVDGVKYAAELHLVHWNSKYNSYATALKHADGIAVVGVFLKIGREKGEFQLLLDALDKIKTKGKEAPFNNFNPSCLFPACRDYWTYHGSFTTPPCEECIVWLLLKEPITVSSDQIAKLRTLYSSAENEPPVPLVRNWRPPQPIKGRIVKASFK
Description: Carbonic anhydrase-III inhibition assay by size exclusion Hummel–Dreyer method (HDM) chromatography. It is filed as binding. To be noted: HDM size exclusion HPLC; 0.24 mM analyte in mobile phase; 10% acetonitrile, phosphate buffer pH 6.5; 37 °C; CA-III injected at three concentrations. As to the method: HPLC screening was conducted on the LC-2010A HT HPLC system, coupled with column temperature controller, degasser, auto sampler, and isocratic elution system, LC-solution software (to calculate peak area), Shimadzu Corporation, Kyoto, Japan. Back pressure was maintained around 6 MPA. A Phenomenex BioSep-SEC s2000, 300 × 7.8 mm column was used for size exclusion chromatography.
Bovine carbonic anhydrase, isozyme III (Biovar Ltd, Armenia) was stored at 0 °C in refrigerator until use. Enzyme was left for few minutes at room temperature before analysis. HPLC-grade methanol and acetonitrile (Fisher Scientific, Loughborough, UK) were used without further purification. NaH2PO4.H2O (Gainland, Deeside, UK), HCl (Carlo Erba, Italy), NaOH (Lonver, UK), and deionised water were used for the preparation of mobile phase. All the required chemicals for the synthesis of target compounds (12–16b) were procured either from Fisher Scientific, Loughborough, UK or Sigma-Aldrich, St. Louis, MO.
Each target compounds (12–16b) was dissolved in a mixture of acetonitrile: phosphate buffer, pH 6.5 (1:9 v/v) to obtain a final concentration of 0.24 mM. Subsequently, filtration and degassing by sonication were conducted for the mobile phase. Three different enzyme (CA-III) concentrations of […] were prepared from the stock solution (containing 0.865 mg in 10 mL of distilled water) by subsequent dilution method and injected separately in each run in the chromatographic system. All samples were used in duplicate. Vanillic acid was used as a positive control, and toluene was used as a negative control.
The mobile phase used for analysis was chosen according to the optimised conditions obtained, where 10% of organic modifier, 30 mM phosphate buffer (pH = 6.5) and 37 °C temperature was used. Column was pre-equilibrated with the mobile phase for 50 min. The flow rate of mobile phase was maintained at 1 mL/min during the run time. A wavelength of 230 nm (λmax) was selected for the analysis of all the tested compounds.
CA-III inhibitory activities of all the 17 target compounds (12–16b) as shown in Table 1 were carried out by using size exclusion HDM chromatography. The HDM chromatography was preferred over colorimetric assay of CA inhibitors, due to the susceptibility of the colorimetric methods to the intrinsic acidic or alkaline properties of analytes (inhibitors), including the lower catalytic activity of CA-III in CO2 hydration. Moreover, in HDM chromatographic method, the dilution effect of the mobile phase not only provides comparatively larger space for interaction between the macromolecule (CA-III) and analytes, but also lowers the probability of self-aggregation of macromolecules[35–37]^,[41]. The HDM was further optimised prior to use, where mobile phase was buffered to maintain the pH = 6.5 to mimic the physiological condition and to minimise the intrinsic properties of analytes. Moreover, acetonitrile (10%) was used to facilitate the elution of analytes (inhibitors) from the hydrophobic column as well as to prevent the adhesion of macromolecule to the stationary phase of the column. A constant optimised temperature of 37 °C was maintained throughout the chromatographic run, as the increase in temperature could not only influence the protein-ligand interaction but also affect the longevity of the column.
The chromatographic analysis by HDM is basically based on the measurement of the intensity of the formation of vacancy (negative) peak due to the subtraction of CA-III bound portion of analytes from the mobile phase. This method is also independent of the enzyme catalytic activity, thereby considered as more sensitive method for the estimation of inhibitory activities of analytes as compared to the colorimetric assay[35–37]^,[41]. Thus, weak inhibitors created weak vacancy peaks independent of the enzyme concentrations. […]

Turning to `COC(=O)c1nc(N)sc1-c1ccc(S(C)(=O)=O)cc1` [Compound 14, Methyl-2-amino-5-(4-(methylsulfonyl)phenyl)thiazole-4-carboxylate], the melting point (usually the temperature of the solid-liquid transition) stood at 260 °C. Besides, the Ki (in general, a measure of affinity in units of concentration, obtained from inhibition or displacement) in data set [1] was over 500 µM.
`Nc1nc(C(=O)O)c(-c2ccc(Cl)c([N+](=O)[O-])c2)s1` [Compound 15a, 2-Amino-5-(4-chloro-3-nitrophenyl)thiazole-4-carboxylic acid] gave a melting point of 163 °C. Also, in data set [1], the Ki came to 81.2 µM.
The compound `Nc1nc(C(=O)O)c(-c2ccccc2)s1` [Compound 12a, 2-amino-5-phenylthiazole-4-carboxylic acid] displayed a Ki in data set [1] of 0.5 µM.
The compound `COC(=O)c1nc(NC(=O)c2ccc([N+](=O)[O-])cc2)sc1-c1ccccc1` [Compound 12b, Methyl-2-(4-nitrobenzamido)-5-substituted-thiazole-4-carboxylate] returned a Ki in data set [1] of over 500 µM.
`Cc1ccc(-c2sc(NC(=O)Nc3ccccc3)nc2C(=O)O)cc1` [Compound 13c, 2-(3-Phenylureido)-5-(p-tolyl)thiazole-4-carboxylic acid] gave a melting point of 226 °C. In data set [1], this compound registered a Ki of 174 µM.
For `Cc1ccc(-c2sc(N)nc2C(=O)O)cc1` [Compound 13a, 2-Amino-5-(p-tolyl)thiazole-4-carboxylic acid] the same measures were 236 °C and 18.9 µM.
The compound `COC(=O)c1nc(NC(=O)Nc2ccccc2)sc1-c1ccc(C)cc1` [Compound 13b, Methyl-2-(3-phenylureido)-5-(p-tolyl)thiazole-4-carboxylate] showed a melting point of 147 °C. Also, the Ki in data set [1] is over 500 µM.
For `COC(=O)c1nc(N)sc1-c1ccc(C)cc1` [Compound 13, Methyl-2-amino-5-(p-tolyl)thiazole-4-carboxylate] the same measures were 201 °C and over 500 µM.
In data set [1], `COC(=O)c1nc(N)sc1-c1ccc(Cl)c([N+](=O)[O-])c1` [Compound 15] registered a Ki of over 500 µM.
On to `COC(=O)c1nc(NC(=O)c2ccc(OC)cc2)sc1-c1ccc(S(C)(=O)=O)cc1` [Compound 14b, Methyl-2-(4-methoxybenzamido)-5-(4-(methylsulfonyl)phenyl)thiazole-4-carboxylate], for which the melting point amounted to 239 °C. The Ki in data set [1] was over 500 µM.
On to `COC(=O)c1nc(NC(=O)Nc2ccccc2)sc1-c1ccc(S(C)(=O)=O)cc1` [Compound 14d, Methyl 5-(4-(methylsulfonyl)phenyl)-2-(3-phenylureido)thiazole-4-carboxylate], for which the melting point stood at 143 °C. For the same compound, in data set [1], the Ki is over 500 µM.
In the case of `COC(=O)c1nc(N)sc1Cc1ccccc1` [Compound 16], the Ki in data set [1] was over 500 µM.
`CS(=O)(=O)c1ccc(-c2sc(N)nc2C(=O)O)cc1` [Compound 14a, 2-Amino-5-(4-(methylsulfonyl)phenyl)thiazole-4-carboxylic acid] gave a melting point of 238 °C. Besides, the affinity in data set [1], expressed as Ki, was 86.6 µM.
Consider `Nc1nc(C(=O)O)c(Cc2ccccc2)s1` [Compound 16a], for which the Ki in data set [1] is over 500 µM.
In data set [1], `COC(=O)c1nc(N)sc1-c1ccccc1` [Compound 12] came in with a Ki of over 500 µM.
As to `COc1cc(C(=O)O)ccc1O` [Vanillic acid, reference compound], the Ki in data set [1] was 6.8 µM.
With `COC(=O)c1nc(NC(=O)Nc2ccccc2)sc1Cc1ccccc1` [Compound 16b, Methyl-5-benzyl-2-(3-phenylureido)thiazole-4-carboxylate], the melting point was 226 °C. In addition, the Ki in data set [1] was over 500 µM.
For the compound `COc1ccc(C(=O)Nc2nc(C(=O)O)c(-c3ccc(S(C)(=O)=O)cc3)s2)cc1` [Compound 14c, 2-(4-Methoxybenzamido)-5-(4-(methylsulfonyl)phenyl)thiazole-4-carboxylic acid], the melting point is 174 °C. Besides, the Ki in data set [1] stood at 186 µM.
